Series [1] has as its system K562, HL60, MCF7, HT29, CaCo-2, DU145, PC3 and LNCaP cell lines. The experiment in a line: Cytotoxic potency compared with genistein on the cancer cell line panel. It is filed as cell-based. The note with it: on these cell lines.
In series [2] the test system is E selectin. The experiment in a line: E selectin expression assay on endothelial cells (FACS). It is filed as cell-based, human. The note with it: 10 μg/ml 18 hours prior to stimulation; TNF and IL-1. How it is done: E selectin and VCAM-1 assays: HUVEC were plated at 5×10^5 cells per 6 well dish. Cells were treated with DMSO vehicle or De (10 μg/ml final) for 18 hours prior to TNFα (1 ng/ml) addition. After 4 or 18 hours, cells were washed with PBS and incubated with antibodies against E selectin (Mab49-1B11) or VCAM-1 (Nab51-10C9) for 30 min. Goat F(ab′)2 fragment mouse-IgG(H+L)-FITC antibody (Immunotech, Marseille, France) was then added for 30 min. The cells were then trypsinised and FACS analysed on a Coulter Epics® XL-MCL (Beckman Coulter). Results are expressed as arbitrary units relating to the mean intensity of FITC fluorescence.

The target in series [3] is T1, human topo I (Homo sapiens, UniProt P11387).
T1 construct: purchased Topogen (Columbus, Ohio)
T1 sequence (P11387 1-765): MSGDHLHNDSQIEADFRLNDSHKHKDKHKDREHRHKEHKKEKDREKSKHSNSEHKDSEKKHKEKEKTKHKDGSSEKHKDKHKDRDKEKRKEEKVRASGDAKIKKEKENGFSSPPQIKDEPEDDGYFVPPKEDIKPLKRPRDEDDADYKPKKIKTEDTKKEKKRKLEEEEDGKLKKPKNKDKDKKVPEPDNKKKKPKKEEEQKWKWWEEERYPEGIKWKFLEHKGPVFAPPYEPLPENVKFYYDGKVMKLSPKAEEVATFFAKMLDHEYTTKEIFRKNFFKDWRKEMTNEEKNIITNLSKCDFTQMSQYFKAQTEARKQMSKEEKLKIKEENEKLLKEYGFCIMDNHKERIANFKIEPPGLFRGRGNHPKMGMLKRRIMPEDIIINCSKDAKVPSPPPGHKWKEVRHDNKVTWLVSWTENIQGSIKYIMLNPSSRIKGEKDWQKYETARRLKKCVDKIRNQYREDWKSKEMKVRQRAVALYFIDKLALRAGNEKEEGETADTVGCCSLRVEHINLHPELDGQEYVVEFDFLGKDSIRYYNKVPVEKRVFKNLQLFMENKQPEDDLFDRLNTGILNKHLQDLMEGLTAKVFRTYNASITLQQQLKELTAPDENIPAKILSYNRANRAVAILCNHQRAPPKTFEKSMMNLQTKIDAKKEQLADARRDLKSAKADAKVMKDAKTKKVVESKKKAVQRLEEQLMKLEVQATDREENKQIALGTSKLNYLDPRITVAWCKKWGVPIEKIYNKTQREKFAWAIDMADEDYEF
In words: Topo I-mediated plasmid-nicking assay. Format: biochemical. The note with it: 20 and 100 μg/ml.
Procedure: Single-strand DNA breakage was determined by converting relaxed (REL) or supercoiled (SC) pUC8 DNA to the nicked form (NIC).
Under the electrophoretic conditions that were used in the experiment shown in FIG. 4, covalently closed circular (supercoiled or relaxed) plasmid DNA migrates on the bottom of the gel. In the presence of a topo I poison that stabilises the cleavable complex, and following denaturation and degradation of the enzyme with proteinase K/SDS, the resulting nicked DNA migrates on the top of the gel.
Topo I poisons enhance topo I-mediated pUC8 DNA cleavage under the reaction conditions provided by the supplier of the enzyme (Topogen, Inc.). Briefly, 20 μl of reaction mixtures contained 10 mM Tris-HCl, pH 7.5, 1 mM EDTA, 100 mM NaCl, 1 μl of the test agent (or solvent), 0.5 μg of pUC8, and 10 units of human topo I (added last). After a 30-min incubation at 37° C., SDS-proteinase K was added, and, following a 30-min incubation at 37° C., samples were extracted with CHCl3-isopropanol and electrophoresed on a 1% agarose gel containing 0.5 μg/ml ethidium bromide. Gels were photographed, and photographic negatives were scanned.

In series [4] the test system is sphingomyelinase. The experiment in a line: TNF-stimulated sphingomyelinase activity. It is filed as cell-based. Particulars: data not shown.
For series [5], the system named is colon cancer line HT29. The experiment in a line: Anti-proliferative effect on HT29. Particulars: Homo sapiens, HT-29. It is filed as cell-based.
In series [6] the test system is Human umbilical vein endothelial cells (HUVEC). The experiment in a line: In vitro capillary tube formation assay in collagen gel. It is filed as cell-based. The note with it: 10 μg/ml, PMA and RMACII present. On the procedure:
In vitro tube assay: Capillary tube formation in a collagen gel was performed essentially as described by Gamble et al^30,31. Tubes were formed in the presence of the tumour promoter phorbol myristate acetate (PMA) and the anti β1 integrin antibody RMACII. De (10 μg/ml final) was added at the time of plating the cells onto the gel.

Series [7] deals with normal NIH 3T3 cells. The experiment in a line: Viability of normal NIH 3T3 cells in focus formation assay. Particulars: 10 μg/ml, 3 weeks. It is filed as cell-based. On the procedure:
Focus formation assay: Low passage NIH 3T3 cells were transfected with either human ras gene (Ras) or empty vector (Vect) control^19. Two days later the transfected cells were seeded in 6 well plates. After reaching confluence, the cells were cultured in the vehicle DMSO or De (10 μg/ml final) for 3 weeks with media change every 3-4 days (±De). Foci were scored after staining with 0.5% crystal violet. One experiment of two performed is shown.

The test system of series [8] is Human umbilical vein endothelial cells (HUVEC). The experiment in a line: Endothelial cell proliferation assay (MTT). It is filed as cell-based. On the procedure:
Cells: Human umbilical vein endothelial cells (HUVEC) were prepared and grown as previously described^30. The cells were used between passages 2 and 6 for all experiments. The human prostatic adenocarcinoma cell line, LNCaP was obtained from American Tissue Type Collection and maintained according to the instructions of the supplier.
Proliferation assay: HUVEC were seeded at 3×10^3 cells per gelatin-coated microtitre well and grown in complete medium for 3 days. Dehydroequol (De) was added 3 hours after plating. Proliferation was measured using the MTT assay (Promega, Wis., USA) and is given as the rate of proliferation over the 3 days±SEM of quadruplicate determinations for each group. Proliferation of LNCaP cells was determined using the MTT assay. Cells were seeded at 2.5×10^3 cells per microtitre well. De was added 4 days after plating and assayed after a further 5 days of growth. Cell viability is expressed as a percentage of control untreated cells.

Series [9] concerns the target T1, human topo I. In words: Topo I-mediated plasmid relaxation assay. Format: biochemical. Particulars: concentrations up to 100 μg/ml, absence of ATP.
Procedure: Topo I activity was determined by converting supercoiled pUC8 DNA (SC) into its relaxed from (REL).
For the determination of topoisomerase (topo) I catalytic activity, pUC8 DNA was used as the substrate in a reaction volume of 20 μl containing the following: 10 mM Tris-HCl, pH 7.9, 1 mM EDTA, 150 mM NaCl, 0.1% BSA, 0.1 mM spermidine, 5% glycerol, and 2 units of purified human topo I. The inhibitor, when applicable, was added as indicated, and the reaction was initiated by the addition of the enzyme. Reactions were carried out at 37° C. for 30 min. Gel electrophoresis was performed at 4 V/cm for 5 h in Tris-borate-EDTA buffer. For the quantitative determination of topo I activity, photographic negatives were scanned. The area representing supercoiled DNA, migrating as a single band at the bottom of the gel, was determined. The concentrations of the inhibitor that prevented 50% of the supercoiled DNA from being converted into relaxed DNA (IC50 values) were determined by averaging the data from at least three experiments.
The subject of series [10] is leukaemic cell line HL60. The experiment in a line: Anti-proliferative effect on HL60. It is filed as cell-based. The note with it: Homo sapiens, HL-60.
Series [11] concerns prostate cancer line PC3. The experiment in a line: Anti-proliferative effect on PC3. It is filed as cell-based. Particulars: Homo sapiens, PC-3.
The subject of series [12] is breast cancer line MCF7. In words: Anti-proliferative effect on MCF7. It is filed as cell-based. The note with it: Homo sapiens.
For series [13], the system named is Sphingosine Kinase (SK). The experiment in a line: Sphingosine kinase activity assay in endothelial cells. Format: cell-based, human. How it is done:
Sphingosine Kinase activity assay: SK activity was measured in vitro by incubating the cytosolic fraction with 10 μM sphingosine-BSA complex and [γ^32P]ATP (1 mM, 0.5 mCi/ml) for 15 minutes at 37° C., as previously described^42. Stimulation was with TNFα (1 ng/ml) (rhTNF-α; R & D Systems, Minneapolis Minn. USA), PMA (100 ng/ml) and IL-1β (100 units/ml) (hrIL-1β; Immunex, Seattle Wa. USA) for 10 minutes. Cells were treated with De or DMSO vehicle as control for 18 hours prior to stimulation.

In brackets after ≈: the same amount, converted by molar mass.

Turning to `Oc1ccc(C2=Cc3ccc(O)cc3OC2)cc1` [Dehydroequol, 4′,7-dihydroxyisoflav-3-ene], the “potency as a cytotoxic agent relative to genistein” value in series [1] is 5-20 times. Also, the “induction of E selectin on the endothelium” value in [2] was “inhibits the induction”. Moreover, the “topo I-mediated single-strand DNA breakage (nicked DNA)” value in series [3] is listed as “failed to produce nicked DNA”. Further, the “effect on TNF-stimulated sphingomyelinase activity” value in [4] was “does not affect”. The IC50 in [5] was determined as 15 µg/mL (≈ 62.4 µM); in series [10] it was 1.5 µg/mL (≈ 6.24 µM); in [11], 2 µg/mL (≈ 8.32 µM); in series [12], 1.5 µg/mL (≈ 6.24 µM). In addition, the “inhibition of capillary tube formation” value in series [6] was “inhibits”. The “viability of normal cells” value in series [7] is “still maintaining the viability”. Further, the “cell death in proliferation assays” value in series [8] is reported as “did not cause cell death”. The same molecule displayed an inhibition at 10 µg/mL in series [8] (Homo sapiens, HUVEC, 10 μg/ml, five experiments) of 91%. Moreover, the “inhibition of topo I-catalysed relaxation of pUC8 DNA” value in series [9] was “did not inhibit”. For the same molecule, the “SK inhibition compared with N,N-dimethylsphingosine (DMS)” value in series [13] is given as “equipotent”. Moreover, the “inhibition of SK activity generated by stimulation with IL-1” value in [13] (dose-dependent, 18 hours pretreatment, IL-1β 100 units/ml 10 minutes) is on record as “inhibits”. Also, the “inhibition of SK activity generated by stimulation with PMA” value in series [13] (dose-dependent, 18 hours pretreatment, PMA 100 ng/ml 10 minutes) was “inhibits”. The “inhibition of SK activity generated by stimulation with TNF” value in series [13] (dose-dependent, 18 hours pretreatment, TNFα 1 ng/ml 10 minutes) was “inhibits”. Further, the “effect on basal levels of SK activity” value in series [13] (unstimulated) is “no effect”.

One may read the IC50 as the concentration at which inhibition is half-maximal. Low readings indicate higher potency, high ones lower potency. As a reminder, the inhibition is the relative decrease from the control value, in per cent. Higher therefore signals a strong effect.

Values taken from patent US20060167083A1, “Therapeutic methods and compositions involving isoflav-3-ene and isoflavan structures” (priority 2002, published 2006).
